For assay [1], the system named is Ste2-like fungal mating GPCRs expressed in S. cerevisiae. The experiment in a line: GPCR on-off activity and dose response assay (FUS1 promoter coRFP fluorescent reporter, strain JTy014, synthetic peptide ligand). Conditions: for Hill Slope: Hill slope of 4-parameter fit; for Bttm: bottom of 4-parameter fit of the fluorescence dose response curve (basal activation); for Fold Change: fold-change activation from Top and Bttm of the fit; for Span: span of 4-parameter fit of the fluorescence dose response curve; for Top: top of 4-parameter fit of the fluorescence dose response curve (maximal activation). In kind it is cell-based, Ascomycete fungi (expressed in S. cerevisiae). Further details: EC50: unit: log10 M. The method, then:
GPCR on-off activity and dose response assay. GPCR activity and response to increasing dosage of synthetic peptide ligand was measured in strain JTy014 using the genomically integrated FUS1-promoter controlled coRFP as a fluorescent reporter. JTy014 strains carrying the appropriate GPCR expression plasmid were assayed in 96-well microtiter plates using 200 μl total volume, cultured at 30° C. and 800 RPM. Cells were seeded at an A600 of 0.3 (Note: all herein reported cell density values are based on A600 measurements in 96-well plates of a 200 μl volume of cultures with a path length of ˜0.3 cm performed in an Infinite M200 plate reader from Tecan) in SC media lacking uracil (selective component). All measurements were performed in triplicates. RFP fluorescence (excitation: 588 nm, emission: 620 nm) and culture turbidity (A600) were measured after 8 hours using an Infinite M200 plate reader (Tecan). Since the optical density values were outside the linear range of the photodetector, all optical density values were first corrected using the following formula to give true optical density values: […]
where Ameas is the measured optical density, Asat is the saturation value of the photodetector and k is the true optical density at which the detector reaches half saturation of the measured optical density^36. Dose-response was measured at different concentrations (11 five-fold dilutions in H2O starting at 40 μM peptide, H2O was used as “no peptide” control) of the appropriate synthetic peptide ligand. All fluorescence values were normalized by the A600, and plotted against the log(10)-converted peptide concentrations. Data were fit to a four-parameter non-linear regression model using Prism (GraphPad) in order to extract GPCR-specific values for basal activation, maximal activation, EC50 and the Hill coefficient. Fold-activation was calculated for each GPCR as the maximum A600-normalized fluorescence of peptide-treated cells divided by the A600 normalized fluorescence value of water-treated cells.

Assay [2] concerns the target T1, Hj.Ste2, Ste2-like mating GPCR of Hypocrea jecorina (Hypocrea jecorina).
T1 chain: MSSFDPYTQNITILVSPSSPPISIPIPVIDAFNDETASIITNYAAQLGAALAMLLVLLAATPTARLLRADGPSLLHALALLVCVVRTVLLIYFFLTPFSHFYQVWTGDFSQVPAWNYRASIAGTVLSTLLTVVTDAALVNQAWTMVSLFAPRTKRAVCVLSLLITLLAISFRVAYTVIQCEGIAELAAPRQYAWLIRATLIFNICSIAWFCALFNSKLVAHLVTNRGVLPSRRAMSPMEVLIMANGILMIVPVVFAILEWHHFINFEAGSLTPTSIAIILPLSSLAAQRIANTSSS
Nature of the assay: cell-based or functional assay.

Assay [3] addresses T2, Le.Ste2, Ste2-like mating GPCR of Lodderomyces elongisporous (Lodderomyces elongisporous).
T2 chain: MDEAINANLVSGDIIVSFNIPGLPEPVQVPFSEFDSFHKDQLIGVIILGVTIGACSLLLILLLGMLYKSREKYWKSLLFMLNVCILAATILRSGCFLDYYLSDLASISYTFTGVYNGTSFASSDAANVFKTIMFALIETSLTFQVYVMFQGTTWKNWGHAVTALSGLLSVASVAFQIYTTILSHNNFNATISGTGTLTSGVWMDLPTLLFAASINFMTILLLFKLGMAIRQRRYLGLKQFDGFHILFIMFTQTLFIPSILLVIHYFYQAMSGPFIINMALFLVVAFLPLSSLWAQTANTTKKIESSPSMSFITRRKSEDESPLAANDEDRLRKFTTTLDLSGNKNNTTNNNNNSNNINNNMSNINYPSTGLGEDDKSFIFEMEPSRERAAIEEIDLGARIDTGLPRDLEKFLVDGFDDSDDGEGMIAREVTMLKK
Nature of the assay: cell-based or functional assay.

Assay [4] concerns the target T3, Bc.Ste2, Ste2-like mating GPCR of Botrytis cinerea (Botrytis cinerea).
T3 chain: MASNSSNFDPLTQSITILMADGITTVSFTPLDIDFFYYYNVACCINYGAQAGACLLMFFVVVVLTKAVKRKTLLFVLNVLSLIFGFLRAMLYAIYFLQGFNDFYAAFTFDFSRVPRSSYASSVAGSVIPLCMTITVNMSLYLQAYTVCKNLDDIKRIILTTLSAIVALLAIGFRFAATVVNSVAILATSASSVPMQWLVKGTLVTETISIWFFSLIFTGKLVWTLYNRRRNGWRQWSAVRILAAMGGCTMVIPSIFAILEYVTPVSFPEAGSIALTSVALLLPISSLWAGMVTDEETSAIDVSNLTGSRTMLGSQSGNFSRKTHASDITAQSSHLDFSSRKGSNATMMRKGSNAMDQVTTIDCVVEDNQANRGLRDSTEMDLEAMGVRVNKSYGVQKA
The experiment in a line: cell-based or functional assay.

Assay [5] deals with T4, Bb.Ste2, Ste2-like mating GPCR of Beauvaria bassiana (Beauvaria bassiana).
T4 chain: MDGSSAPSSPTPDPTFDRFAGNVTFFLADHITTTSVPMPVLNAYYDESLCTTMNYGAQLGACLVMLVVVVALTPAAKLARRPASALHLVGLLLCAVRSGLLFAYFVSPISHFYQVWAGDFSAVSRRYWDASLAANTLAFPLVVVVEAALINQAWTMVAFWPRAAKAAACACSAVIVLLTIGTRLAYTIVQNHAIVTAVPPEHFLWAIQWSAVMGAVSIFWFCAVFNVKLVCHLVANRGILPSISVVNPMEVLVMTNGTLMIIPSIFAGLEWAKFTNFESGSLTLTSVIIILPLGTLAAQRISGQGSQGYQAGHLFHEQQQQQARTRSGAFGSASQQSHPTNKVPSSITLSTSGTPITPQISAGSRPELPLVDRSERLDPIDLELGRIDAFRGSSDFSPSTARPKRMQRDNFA
Nature of the assay: cell-based or functional assay.

The mark [6] stands for this setting: peptide/GPCR pair, synthetic cognate peptide, fluorescence read-out, 4-parameter fit of dose response curves (FIG. 6), values given as negative (log) numbers.

Data on 15 molecules can be found in patent publication US20220119825A1, “SCALABLE PEPTIDE-GPCR INT[…] SYSTEMS” (THE TRUSTEES OF COLUMBIA UNIVERSITY IN THE CITY OF NEW YORK, priority 2019, published 2022).

Read-outs that look alike come from different tables or passages of the source. Ends that are not written are not given here. Peptide text beside a SMILES is read from it.

“S. cerevisiae Ste2: natural S. cerevisiae mating GPCR; value is its sensitivity to its cognate peptide ligand”: the EC50 in assay [1] (cognate synthetic peptide, fluorescence/A600 after 8 hours, four-parameter fit, read-out: EC50 (sensitivity of the GPCR for its cognate ligand)) was determined as 1.25 nM.
For H-KFKFRLTRYGWFSPN-OH [Ct], in assay [1], the “Hill Slope” value was determined as 1.2, the Bttm was 32.0, the “Fold Change” value is given as 5.2 and the Span is 134.6. In assay [1], this molecule yielded a Top of 166.7. For the same molecule, in assay [1] (setting [6]), the EC50 is −8.2.
For H-KWGWLRFFPGEPFV-OH [Cau], in assay [1], the “Hill Slope” value came to 0.8, the Bttm was 50.6, the “Fold Change” value worked out at 6.7 and the Span turned out to be 286.3. The same molecule gave a Top in assay [1] of 336.9. Besides, the EC50 in assay [1] (setting [6]) is −8.1.
For the molecule H-WSWITLRPGQPIF-OH [Kl], in assay [1], the “Hill Slope” value worked out at 0.8, the Bttm is given as 37.2, the “Fold Change” value is listed as 6.0 and the Span was found to be 185.9. Moreover, the Top in assay [1] worked out at 223.1. In assay [1] (setting [6]), the EC50 is on record as −7.3.
For the molecule H-WHWVRLRKGQGLF-OH [Cg], in assay [1], the “Hill Slope” value was determined as 2.4, the Bttm was 30.5, the “Fold Change” value came out at 7.0 and the Span was 183.0. Also, the Top in assay [1] is 213.6. Also, the EC50 in assay [1] (setting [6]) is given as −5.9.
For H-NWHWLRLDPGQPLY-OH [Sca], in assay [1], the “Hill Slope” value is on record as 0.7, the Bttm came to 24.3, the “Fold Change” value is listed as 6.4 and the Span is reported as 131.1. This molecule displayed a Top in assay [1] of 155.4. The EC50 in assay [1] (setting [6]) is reported as −8.1.
Turning to `CC[C@H](C)[C@H](NC(=O)[C@H](Cc1c[nH]c2ccccc12)NC(=O)CN)C(=O)NCC(=O)N[C@@H](CCCNC(=N)N)C(=O)N[C@@H](CS)C(=O)NCC(=O)N[C@H](C(=O)N1CCC[C@H]1C(=O)NCC(=O)N[C@@H](CO)C(=O)N[C@@H](CO)C(=O)N[C@@H](CS)C(=O)O)C(C)C` [Bm] (H-GWIGRCGVPGSSC-OH; N-terminus and C-terminus assumed), in assay [1], the “Hill Slope” value is recorded as 1.2, the Bttm is given as 30.3, the “Fold Change” value turned out to be 5.2 and the Span amounted to 128.4. In assay [1], this molecule yielded a Top of 158.8. In addition, in assay [1] (setting [6]), the EC50 is recorded as −6.7.
Consider `NCCCC[C@H](NC(=O)[C@H](Cc1c[nH]c2ccccc12)NC(=O)[C@H](Cc1c[nH]c2ccccc12)NC(=O)[C@H](CS)NC(=O)[C@@H](N)Cc1c[nH]c2ccccc12)C(=O)NCC(=O)N[C@@H](CCC(N)=O)C(=O)N1CCC[C@H]1C(=O)N[C@@H](CS)C(=O)N[C@@H](Cc1c[nH]c2ccccc12)C(=O)O` [Fg] (H-WCWWKGQPCW-OH), for which, in assay [1], the “Hill Slope” value worked out at 1.3, the Bttm was 29.2, the “Fold Change” value is listed as 8.0 and the Span is 203.0. Moreover, the Top in assay [1] was 232.2. Further, in assay [1] (setting [6]), the EC50 is on record as −7.1.
As for FSWNYRLKWQPIS [Cn], in assay [1], the “Hill Slope” value worked out at 1.1, the Bttm came out at 29.7, the “Fold Change” value came out at 5.1 and the Span came to 122.5. Besides, the Top in assay [1] worked out at 152.2. The EC50 in assay [1] (setting [6]) is on record as −7.4.
Turning to H-KPHWTTYGYYEPQ-OH [Cp], in assay [1], the “Hill Slope” value is given as 0.8, the Bttm came out at 36.2, the “Fold Change” value stood at 7.0 and the Span was determined as 217.8. Also, in assay [1], the Top was determined as 254.0. Also, the EC50 in assay [1] (setting [6]) was −8.5.

B1: She. Ste2: genome-mined mating GPCR activated by near-cognate peptide with two additional N-terminal residues (protein)
chain: MKPAAGPASSPFDPFNQTFYLTGPDNTTVPVSVPQVDYIWHYIIGTSINYGSQIGACLLMLLVMLTLTSKSRFSRAATLINVASLLIGVIRCVLLAVYFTSSLTELYALFVGDYSQVRRSDLCVSAVATFFSLPQLVLIEAALFLQAYSMIKMWPSLWRAVVLAMSVVVAVCAIGFKFASVVMRMRSTLTLDDSLDFWLVEVDLAFTATTIFWFCFIYIIRLVIHMWEYRSILPPMGSVSAMEVLVMTNGALMLVPVIFAAIEINGLSSFESGSLVHTSVIVLLPLGSLIAQAMTRPDGYVQRTNTSGASGASGAHPGRNGSGHGGHGGAYSRAMTNTLNTLDTLDTVDSKTSIMHHHHHHHRNHSNGMSKTKANSGTWSHASDANSTNAMISGGIATQVRIQANQSTLGNTGMSGGSGAPNSHTRNNSLAAMEPVEKQLHDIDATPLSASDCRVWVDREVEVRRDMV
As for B1, the “activation by alternative near-cognate peptide ligand candidates” value in assay [1] (40 μM synthetic peptide ligand, 8 hours) was “can be activated”.
In assay [2], WCYRIGEPCW (modifications not checked) [Hj peptide ligand #1 (Table 3: …)] gave a Bttm (FUS1p-RFP reporter) (fluorescence/A600 (not given)) of 53, an EC50 (FUS1p-RFP reporter) (log10 M (not given)) of -7.8, a Fold Change (FUS1p-RFP reporter) of 8.1 fold and a Span (FUS1p-RFP reporter) (fluorescence/A600 (not given)) of 376. Also, in assay [2], the Top (FUS1p-RFP reporter) (fluorescence/A600 (not given)) came out at 430.
In the case of WMWTRYGRFSPV [Le peptide ligand #1 WMWTRYGRFSPV], in assay [3], the “Bttm (FUS1p-RFP reporter)” value was 22.9 fluorescence/A600 (not printed), the “EC50 (FUS1p-RFP reporter)” value was -7.7 log10 M (not printed), the “Fold Change (FUS1p-RFP reporter)” value was 18 fold and the “Span (FUS1p-RFP reporter)” value is 390 fluorescence/A600 (not printed). Also, the “Top (FUS1p-RFP reporter)” value in assay [3] is 412 fluorescence/A600 (not printed).
On to WCGRPGQPC [Bc peptide ligand #1 WCGRPGQPC], for which, in assay [4], the “Bttm (FUS1p-RFP reporter)” value is 28.6 fluorescence/A600 (not printed), the “EC50 (FUS1p-RFP reporter)” value is -8.1 log10 M (not printed), the “Fold Change (FUS1p-RFP reporter)” value was found to be 12.3 fold and the “Span (FUS1p-RFP reporter)” value is 323 fluorescence/A600 (not printed). The “Top (FUS1p-RFP reporter)” value in assay [4] is 352 fluorescence/A600 (not printed).
As for WCMRPGQPCW [Bb peptide ligand #1 WCMRPGQPCW], in assay [5], the “Bttm (FUS1p-RFP reporter)” value was 25.2 fluorescence/A600 (not printed), the “EC50 (FUS1p-RFP reporter)” value is -8.5 log10 M (not printed), the “Fold Change (FUS1p-RFP reporter)” value turned out to be 9.7 fold and the “Span (FUS1p-RFP reporter)” value is 219 fluorescence/A600 (not printed). Also, the “Top (FUS1p-RFP reporter)” value in assay [5] is 244 fluorescence/A600 (not printed).
